From patent publication US20250215012A1, “IKZF2 DEGRADERS AND USES THEREOF” (REGENTS OF THE UNIVERSITY OF MICHIGAN, priority 2022, published 2025)

Biological target: IKZF2 (Homo sapiens (Human), UniProt Q96SW2+Q9UKS7)
Experiment: IKZF2 HiBiT Assay (Jurkat-IKZF2-HiBiT cell line)
Type: cell-based
Details: Jurkat-IKZF2-HiBiT cells, 24 hours; for DC50: read-out: HiBit assay degradation analysis DC50; for Dmax: read-out: HiBit assay degradation analysis Dmax
Method in brief: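 Jurkat cells carrying HiBiT-tagged IKZF2 were exposed to serially diluted compound for 24 h at 37 °C. Remaining IKZF2 was measured by Nano-Glo HiBiT lytic luminescence after 10-20 min at room temperature. Signal was normalized to DMSO, and IC50 came from a four-parameter variable-slope fit.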

IKZF2, sequence (Q9UKS7 whole entry): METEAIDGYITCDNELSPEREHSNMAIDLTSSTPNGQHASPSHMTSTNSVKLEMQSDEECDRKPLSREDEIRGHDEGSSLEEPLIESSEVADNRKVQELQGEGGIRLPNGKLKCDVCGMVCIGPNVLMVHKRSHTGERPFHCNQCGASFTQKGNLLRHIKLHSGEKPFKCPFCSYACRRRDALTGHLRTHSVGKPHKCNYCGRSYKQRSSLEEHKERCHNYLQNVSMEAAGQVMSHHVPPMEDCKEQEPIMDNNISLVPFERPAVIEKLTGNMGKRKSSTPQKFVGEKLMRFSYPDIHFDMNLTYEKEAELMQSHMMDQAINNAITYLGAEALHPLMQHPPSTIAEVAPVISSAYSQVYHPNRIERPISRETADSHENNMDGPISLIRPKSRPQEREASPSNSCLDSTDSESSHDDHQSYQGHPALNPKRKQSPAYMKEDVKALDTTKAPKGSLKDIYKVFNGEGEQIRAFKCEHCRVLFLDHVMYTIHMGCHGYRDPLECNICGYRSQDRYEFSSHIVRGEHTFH
IKZF2, sequence (Q96SW2 whole entry): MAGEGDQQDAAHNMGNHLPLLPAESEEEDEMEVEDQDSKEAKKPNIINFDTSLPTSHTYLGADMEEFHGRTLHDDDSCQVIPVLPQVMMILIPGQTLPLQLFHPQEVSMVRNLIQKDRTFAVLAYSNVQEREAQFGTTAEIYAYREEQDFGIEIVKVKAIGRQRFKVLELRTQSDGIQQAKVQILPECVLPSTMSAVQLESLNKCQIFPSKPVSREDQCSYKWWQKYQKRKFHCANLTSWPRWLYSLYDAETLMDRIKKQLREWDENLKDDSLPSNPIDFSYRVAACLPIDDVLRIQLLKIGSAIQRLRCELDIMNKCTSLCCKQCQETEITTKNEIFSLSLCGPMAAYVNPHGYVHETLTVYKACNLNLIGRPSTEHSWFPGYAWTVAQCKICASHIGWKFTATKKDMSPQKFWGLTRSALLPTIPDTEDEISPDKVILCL
IKZF2, sequence (Q16531 whole entry partner): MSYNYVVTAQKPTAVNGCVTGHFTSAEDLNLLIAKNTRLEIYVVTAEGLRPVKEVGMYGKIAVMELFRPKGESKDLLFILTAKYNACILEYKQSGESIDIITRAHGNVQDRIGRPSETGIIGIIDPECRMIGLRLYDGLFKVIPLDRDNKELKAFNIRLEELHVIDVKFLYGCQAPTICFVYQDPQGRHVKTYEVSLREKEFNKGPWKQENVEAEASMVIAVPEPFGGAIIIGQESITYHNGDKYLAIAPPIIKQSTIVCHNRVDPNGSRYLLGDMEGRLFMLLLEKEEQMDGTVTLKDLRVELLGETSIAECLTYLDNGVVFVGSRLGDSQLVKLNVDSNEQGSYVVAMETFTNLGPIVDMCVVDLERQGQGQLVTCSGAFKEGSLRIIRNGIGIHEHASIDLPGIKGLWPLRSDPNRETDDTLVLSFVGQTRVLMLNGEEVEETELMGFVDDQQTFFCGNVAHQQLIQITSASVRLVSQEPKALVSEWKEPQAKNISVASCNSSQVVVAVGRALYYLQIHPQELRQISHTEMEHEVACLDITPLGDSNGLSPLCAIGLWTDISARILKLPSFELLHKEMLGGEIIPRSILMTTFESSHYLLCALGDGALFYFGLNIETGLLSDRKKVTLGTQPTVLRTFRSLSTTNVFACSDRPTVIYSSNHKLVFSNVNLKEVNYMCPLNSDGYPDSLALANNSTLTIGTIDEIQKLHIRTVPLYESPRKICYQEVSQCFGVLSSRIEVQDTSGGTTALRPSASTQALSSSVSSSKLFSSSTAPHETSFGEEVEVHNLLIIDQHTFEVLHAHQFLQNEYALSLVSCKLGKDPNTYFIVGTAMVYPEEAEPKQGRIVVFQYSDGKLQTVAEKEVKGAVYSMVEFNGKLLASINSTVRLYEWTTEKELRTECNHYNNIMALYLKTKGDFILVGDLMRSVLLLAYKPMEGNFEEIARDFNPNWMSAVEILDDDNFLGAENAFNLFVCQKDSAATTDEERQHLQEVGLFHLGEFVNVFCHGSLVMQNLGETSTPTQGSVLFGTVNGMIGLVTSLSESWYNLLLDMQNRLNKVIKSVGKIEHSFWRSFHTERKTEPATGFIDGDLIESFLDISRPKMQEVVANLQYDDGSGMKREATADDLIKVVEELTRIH

| Structure (SMILES) | DC50 [µM] | Dmax [%] |
| --- | --- | --- |
| O=C1CCC(N2Cc3c(ccc4c3OCC43CCN(Cc4cnc5c(c4)CCCC5)CC3)C2=O)C(=O)N1 (centres unmarked) [Compound A325, 3-(6-oxo-1′-((5,6,7,8-tetrahydroquinolin-3-yl)methyl)-6,8-dihydro-2H,7H-spiro[furo [2,3-e]isoindole-3,4′-piperidin]-7-yl)piperidine-2,6-dione] | > 0.5 | < 40 |
| CC1(C)Cc2c(CN3CCC4(CC3)COc3c4ccc4c3CN(C3CCC(=O)NC3=O)C4=O)cccc2O1 (centres unmarked) [Compound A326, 3-(1′-((2,2-dimethyl-2,3-dihydrobenzofuran-4-yl)methyl)-6-oxo-6,8-dihydro-2H,7H-spiro[furo[2,3-e]isoindole-3,4′-piperidin]-7-yl)piperidine-2,6-dione] | > 0.5 | 40 to 60 |
| CC1(C)CCc2cccc(CN3CCC4(CC3)COc3c4ccc4c3CN(C3CCC(=O)NC3=O)C4=O)c2O1 (centres unmarked) [Compound A327, 3-(1′-((2,2-dimethylchroman-8-yl)methyl)-6-oxo-6,8-dihydro-2H,7H-spiro[furo[2,3-e]isoindole-3,4′-piperidin]-7-yl)piperidine-2,6-dione] | 0.05 to 0.2 | 60 to 80 |
| O=C1CCC(N2Cc3c(ccc4c3OCC43CCN(Cc4nn(CC5COCCO5)c5ccccc45)CC3)C2=O)C(=O)N1 (centres unmarked) [Compound A328, 3-(1′-((1-((1,4-dioxan-2-yl)methyl)-1H-indazol-3-yl)methyl)-6-oxo-6,8-dihydro-2H,7H-spiro[furo[2,3-e]isoindole-3,4′-piperidin]-7-yl)piperidine-2,6-dione] | < 0.05 | 60 to 80 |
| O=C1CCC(N2Cc3c(ccc4c3OCC43CCN(Cc4nn(CC5CCCCC5)c5ccccc45)CC3)C2=O)C(=O)N1 (centres unmarked) [Compound A329, 3-(1′-((1-(cyclohexylmethyl)-1H-indazol-3-yl)methyl)-6-oxo-6,8-2H,7H-spiro[furo[2,3-e]isoindole-3,4′-piperidin]-7-yl)piperidine-2,6-dione] | 0.05 to 0.2 | 60 to 80 |
| CCC(c1ccccc1)N1CCC2(CC1)COc1c2ccc2c1CN(C1CCC(=O)NC1=O)C2=O (centres unmarked) [Compound A330, 3-(6-oxo-1′-(1-phenylpropyl)-6,8-dihydro-2H,7H-spiro[furo[2,3-e]isoindole-3,4′-piperidin]-7-yl)piperidine-2,6-dione] | < 0.05 | 60 to 80 |
| O=C1CCC(N2Cc3c(ccc4c3OCC43CCN(Cc4cnn(-c5ccccc5Cl)c4)CC3)C2=O)C(=O)N1 (centres unmarked) [Compound A331, 3-(1′-((1-(2-chlorophenyl)-1H-pyrazol-4-yl)methyl)-6-oxo-6,8-dihydro-2H,7H-spiro[furo[2,3-e]isoindole-3,4′-piperidin]-7-yl) piperidine-2,6-dione] | > 0.5 | < 40 |
| O=C1CCC(N2Cc3c(ccc4c3OCC43CCN(C[C@H]4C[C@@H]4c4ccccc4)CC3)C2=O)C(=O)N1 (stereo partly drawn) [Compound A332, 3-(6-oxo-1′-(((1S,2S)-2-phenylcyclopropyl)methyl)-6,8-dihydro-2H,7H-spiro[furo[2,3-e]isoindole-3,4′-piperidin]-7-yl)piperidine-2,6-dione] | > 0.5 | – |
| O=C1CCC(N2Cc3c(ccc4c3OCC43CCN(CC4(c5ccccc5)CC4)CC3)C2=O)C(=O)N1 (centres unmarked) [Compound A333, 3-(6-oxo-1′-((1-phenylcyclopropyl)methyl)-6,8-dihydro-2H,7H-spiro[furo[2,3-e]isoindole-3,4′-piperidin]-7-yl)piperidine-2,6-dione] | > 0.5 | 40 to 60 |
| O=C1CCC(N2Cc3c(ccc4c3OCC43CCN(CC4(c5ccccc5)CCC4)CC3)C2=O)C(=O)N1 (centres unmarked) [Compound A334, 3-(6-oxo-1′-((1-phenylcyclobutyl)methyl)-6,8-dihydro-2H,7H-spiro[furo[2,3-e]isoindole-3,4′-piperidin]-7-yl)piperidine-2,6-dione] | > 0.5 | 40 to 60 |
| O=C1CCC(N2Cc3c(ccc4c3OCC43CCN(Cc4ncn(-c5ccccc5)n4)CC3)C2=O)C(=O)N1 (centres unmarked) [Compound A335, 3-(6-oxo-1′-((1-phenyl-1H-1,2,4-triazol-3-yl)methyl)-6,8-dihydro-2H,7H-spiro[furo[2,3-e]isoindole-3,4′-piperidin]-7-yl)piperidine-2,6-dione] | > 0.5 | < 40 |
| O=C1CCC(N2Cc3c(ccc4c3OCC43CCN(Cc4cnn(S(=O)(=O)c5ccccc5)c4)CC3)C2=O)C(=O)N1 (centres unmarked) [Compound A336, 3-(6-oxo-1′-((1-(phenylsulfonyl)-1H-pyrazol-4-yl)methyl)-6,8-dihydro-2H,7H-spiro[furo[2,3-e]isoindole-3,4′-piperidin]-7-yl)piperidine-2,6-dione] | > 0.5 | 40 to 60 |
| O=C1CCC(N2Cc3c(ccc4c3OCC43CCN(Cc4cnn(S(=O)(=O)c5ccccc5F)c4)CC3)C2=O)C(=O)N1 (centres unmarked) [Compound A337, 3-(1′-((1-((2-fluorophenyl)sulfonyl)-1H-pyrazol-4-yl)methyl)-6-oxo-6,8-dihydro-2H,7H-spiro[furo[2,3-e]isoindole-3,4′-piperidin]-7-yl)piperidine-2,6-dione] | 0.05 to 0.2 | 60 to 80 |
| O=C1CCC(N2Cc3c(ccc4c3OCC43CCN(Cc4ccc(OCc5ccccc5)cn4)CC3)C2=O)C(=O)N1 (centres unmarked) [Compound A338, 3-(1′-((5-(benzyloxy)pyridin-2-yl)methyl)-6-oxo-6,8-dihydro-2H,7H-spiro[furo[2,3-e]isoindole-3,4′-piperidin]-7-yl)piperidine-2,6-dione] | > 0.5 | < 40 |
| O=C1CCC(N2Cc3c(ccc4c3OCC43CCN(Cc4ccc(OCc5ccccc5)nc4)CC3)C2=O)C(=O)N1 (centres unmarked) [Compound A339, 3-(1′-((6-(benzyloxy)pyridin-3-yl)methyl)-6-oxo-6,8-dihydro-2H,7H-spiro[furo[2,3-e]isoindole-3,4′-piperidin]-7-yl)piperidine-2,6-dione] | > 0.5 | 40 to 60 |
| O=C1CCC(N2Cc3c(ccc4c3OCC43CCN(Cc4ccc(S(=O)(=O)c5ccccc5)cc4)CC3)C2=O)C(=O)N1 (centres unmarked) [Compound A340, 3-(6-oxo-1′-(4-(phenylsulfonyl)benzyl)-6,8-dihydro-2H,7H-spiro[furo[2,3-e]isoindole-3,4′-piperidin]-7-yl)piperidine-2,6-dione] | > 0.5 | 40 to 60 |
| COCCn1cc2cc(CN3CCC4(CC3)COc3c4ccc4c3CN(C3CCC(=O)NC3=O)C4=O)ccc2n1 (centres unmarked) [Compound A341, 3-(1′-((2-(2-methoxyethyl)-2H-indazol-5-yl)methyl)-6-oxo-6,8-dihydro-2H,7H-spiro[furo[2,3-e]isoindole-3,4′-piperidin]-7-yl) piperidine-2,6-dione] | > 0.5 | < 40 |
| COCCn1ncc2cc(CN3CCC4(CC3)COc3c4ccc4c3CN(C3CCC(=O)NC3=O)C4=O)ccc21 (centres unmarked) [Compound A342, 3-(1′-((1-(2-methoxyethyl)-1H-indazol-5-yl)methyl)-6-oxo-6,8-dihydro-2H,7H-spiro[furo[2,3-e]isoindole-3,4′-piperidin]-7-yl)piperidine-2,6-dione] | > 0.5 | < 40 |
| COCCn1ncc2c(CN3CCC4(CC3)COc3c4ccc4c3CN(C3CCC(=O)NC3=O)C4=O)cccc21 (centres unmarked) [Compound A343, 3-(1′-((1-(2-methoxyethyl)-1H-indazol-4-yl)methyl)-6-oxo-6,8-dihydro-2H,7H-spiro[furo[2,3-e]isoindole-3,4′-piperidin]-7-yl)piperidine-2,6-dione] | > 0.5 | 40 to 60 |
| O=C1CCC(N2Cc3c(ccc4c3OCC43CCN(Cc4ccc5c(cnn5CCO)c4)CC3)C2=O)C(=O)N1 (centres unmarked) [Compound A344, 3-(1′-((1-(2-hydroxyethyl)-1H-indazol-5-yl)methyl)-6-oxo-6,8-dihydro-2H,7H-spiro[furo[2,3-e]isoindole-3,4′-piperidin]-7-yl)piperidine-2,6-dione] | > 0.5 | 40 to 60 |
| O=C1CCC(N2Cc3c(ccc4c3OCC43CCN(Cc4ccc5nn(CCO)cc5c4)CC3)C2=O)C(=O)N1 (centres unmarked) [Compound A345, 3-(1′-((2-(2-hydroxyethyl)-2H-indazol-5-yl)methyl)-6-oxo-6,8-dihydro-2H,7H-spiro [furo[2,3-e]isoindole-3,4′-piperidin]-7-yl)piperidine-2,6-dione] | > 0.5 | < 40 |
| CC(C)(c1ccccc1)n1cc(CN2CCC3(CC2)COc2c3ccc3c2CN([C@H]2CCC(=O)NC2=O)C3=O)cn1 [Compound A346, (S)-3-(6-oxo-1′-((1-(2-phenylpropan-2-yl)-1H-pyrazol-4-yl)methyl)-6,8-dihydro-2H,7H-spiro[furo[2,3-e]isoindole-3,4′-piperidin]-7-yl)piperidine-2,6-dione] | < 0.05 | 60 to 80 |
| O=C1CC[C@H](N2Cc3c(ccc4c3OCC43CCN(Cc4cnn(CC5C[C@@H]5c5ccccc5)c4)CC3)C2=O)C(=O)N1 (stereo partly drawn) [Compound A347, (S)-3-(6-oxo-1′-((1-(((1S,2S)-2-phenylcyclopropyl)methyl)-1H-pyrazol-4-yl)methyl)-6,8-dihydro-2H,7H-spiro[furo[2,3-e]isoindole-3,4′-piperidin]-7-yl)piperidine-2,6-dione] | < 0.05 | – |
| O=C1CC[C@H](N2Cc3c(ccc4c3OCC43CCN(Cc4cnn(C[C@H]5C[C@@H]5c5ccccc5)c4)CC3)C2=O)C(=O)N1 [Compound A347, (S)-3-(6-oxo-1′-((1-(((1S,2S)-2-phenylcyclopropyl)methyl)-1H-pyrazol-4-yl)methyl)-6,8-dihydro-2H,7H-spiro[furo[2,3-e]isoindole-3,4′-piperidin]-7-yl)piperidine-2,6-dione] | – | 60 to 80 |
| O=C1CC[C@H](N2Cc3c(ccc4c3OCC43CCN(Cc4cnn(CC5(c6ccccc6)CC5)c4)CC3)C2=O)C(=O)N1 [Compound A348, (S)-3-(6-oxo-1′-((1-((1-phenylcyclopropyl)methyl)-1H-pyrazol-4-yl)methyl)-6,8-dihydro-2H,7H-spiro[furo[2,3-e]isoindole-3,4′-piperidin]-7-yl)piperidine-2,6-dione] | < 0.05 | 60 to 80 |
